From publication PMC5218480 (PLoS ONE, 2017)

Tested on: MV-4-11 cells
Assay: Gene expression microarray analysis (Affymetrix PrimeView) and GSEA
Format: cell-based, human
Design: RFU PODN (11730768_x_at) / Fold change /veh PODN (11730768_x_at) / RFU LINC00158 (11744669_a_at) / Fold change /veh LINC00158 (11744669_a_at) / RFU DUSP10 (11751237_a_at) / Fold change /veh DUSP10 (11751237_a_at) / RFU ID3 (11757404_x_at) / Fold change /veh ID3 (11757404_x_at) / RFU PLEKHG5 (11737974_s_at) / Fold change /veh PLEKHG5 (11737974_s_at) / RFU LRRC4B (11730491_at) / Fold change /veh LRRC4B (11730491_at) / RFU GIMAP4 (11747438_a_at) / Fold change /veh GIMAP4 (11747438_a_at) / RFU KRT8 (11758183_x_at) / Fold change /veh KRT8 (11758183_x_at) / RFU CNN1 (11734310_a_at) / Fold change /veh CNN1 (11734310_a_at) / RFU VPS37D (11726825_at) / Fold change /veh VPS37D (11726825_at) / RFU C10orf10 (11716522_x_at) / Fold change /veh C10orf10 (11716522_x_at) / RFU KIR2DL2 /// KIR2DL4 /// KIR2DL5A /// KIR2DL5B /// KIR2DS1 /// KIR2DS2 /// KIR2DS3 /// KIR2DS4 /// KIR3DL3 /// KIR3DL3 /// KIR3DS1 (11738374_at) / Fold change /veh KIR2DL2 /// KIR2DL4 /// KIR2DL5A /// KIR2DL5B /// KIR2DS1 /// KIR2DS2 /// KIR2DS3 /// KIR2DS4 /// KIR3DL3 /// KIR3DL3 /// KIR3DS1 (11738374_at) / RFU C1QL1 (11718748_at) / Fold change /veh C1QL1 (11718748_at) / RFU TMPRSS4 (11747572_a_at) / Fold change /veh TMPRSS4 (11747572_a_at) / RFU HAMP (11756126_x_at) / Fold change /veh HAMP (11756126_x_at) / RFU RNFT2 (11725882_a_at) / Fold change /veh RNFT2 (11725882_a_at) / RFU NR4A2 (11747474_a_at) / Fold change /veh NR4A2 (11747474_a_at) / RFU ABCC12 (11746883_a_at) / Fold change /veh ABCC12 (11746883_a_at) / RFU TMEM136 (11760407_x_at) / Fold change /veh TMEM136 (11760407_x_at) / RFU CLDN22 /// WWC2 (11732394_at) / Fold change /veh CLDN22 /// WWC2 (11732394_at) / RFU HLA-DPB1 (11760878_x_at) / Fold change /veh HLA-DPB1 (11760878_x_at) / RFU SPINT1 (11716480_a_at) / Fold change /veh SPINT1 (11716480_a_at) / RFU GAP43 (11754022_s_at) / Fold change /veh GAP43 (11754022_s_at) / RFU A4GNT (11735810_at) / Fold change /veh A4GNT (11735810_at) / RFU PRB3 (11715151_x_at) / Fold change /veh PRB3 (11715151_x_at) / RFU TUBB4B (11761932_at) / Fold change /veh TUBB4B (11761932_at) / RFU CAPN14 (11732068_a_at) / Fold change /veh CAPN14 (11732068_a_at) / RFU TMCC2 (11721928_a_at) / Fold change /veh TMCC2 (11721928_a_at) / RFU IRGQ (11745062_a_at) / Fold change /veh IRGQ (11745062_a_at) / RFU FAM174B (11720279_a_at) / Fold change /veh FAM174B (11720279_a_at) / RFU TMPRSS4 (11748680_a_at) / Fold change /veh TMPRSS4 (11748680_a_at) / RFU FAM212B (11763350_a_at) / Fold change /veh FAM212B (11763350_a_at) / RFU PLEKHG5 (11743358_a_at) / Fold change /veh PLEKHG5 (11743358_a_at) / RFU ZSCAN30 (11745921_a_at) / Fold change /veh ZSCAN30 (11745921_a_at) / RFU CMKLR1 (11741424_a_at) / Fold change /veh CMKLR1 (11741424_a_at) / RFU LOC101060620 /// MAPK8IP1 (11723275_at) / Fold change /veh LOC101060620 /// MAPK8IP1 (11723275_at) / RFU SPTSSB (11747773_x_at) / Fold change /veh SPTSSB (11747773_x_at) / RFU PRSS12 (11739890_at) / Fold change /veh PRSS12 (11739890_at) / RFU BIN1 (11741810_x_at) / Fold change /veh BIN1 (11741810_x_at) / RFU WNT11 (11732464_a_at) / Fold change /veh WNT11 (11732464_a_at) / RFU C10orf10 (11716521_a_at) / Fold change /veh C10orf10 (11716521_a_at) / RFU C5orf56 (11738089_at) / Fold change /veh C5orf56 (11738089_at) / RFU CYB561 (11721691_x_at) / Fold change /veh CYB561 (11721691_x_at) / RFU ANKRD19P (11752326_a_at) / Fold change /veh ANKRD19P (11752326_a_at) / RFU OR2T12 /// OR2T33 /// OR2T8 (11738714_s_at) / Fold change /veh OR2T12 /// OR2T33 /// OR2T8 (11738714_s_at) / RFU VCAN (11748164_a_at) / Fold change /veh VCAN (11748164_a_at) / RFU JSRP1 (11732532_at) / Fold change /veh JSRP1 (11732532_at) / RFU KRTAP10-11 (11738290_x_at) / Fold change /veh KRTAP10-11 (11738290_x_at) / RFU MYO3A (11730013_a_at) / Fold change /veh MYO3A (11730013_a_at) / RFU EBF3 (11725865_a_at) / Fold change /veh EBF3 (11725865_a_at) / RFU CAMK2N1 (11719241_x_at) / Fold change /veh CAMK2N1 (11719241_x_at) / RFU C5orf56 (11738088_a_at) / Fold change /veh C5orf56 (11738088_a_at) / RFU OLFML3 (11715873_a_at) / Fold change /veh OLFML3 (11715873_a_at) / RFU LOC100653217 /// NTM (11731650_a_at) / Fold change /veh LOC100653217 /// NTM (11731650_a_at) / RFU MAPK11 (11762145_a_at) / Fold change /veh MAPK11 (11762145_a_at) / RFU FIZ1 (11724087_x_at) / Fold change /veh FIZ1 (11724087_x_at) / RFU OASL (11726364_x_at) / Fold change /veh OASL (11726364_x_at) / RFU SOX15 (11748057_x_at) / Fold change /veh SOX15 (11748057_x_at) / RFU CD79A (11719716_a_at) / Fold change /veh CD79A (11719716_a_at) / RFU HIST1H1D (11736915_at) / Fold change /veh HIST1H1D (11736915_at) / RFU CASKIN2 (11723855_a_at) / Fold change /veh CASKIN2 (11723855_a_at) / RFU LOC730098 (11760151_x_at) / Fold change /veh LOC730098 (11760151_x_at) / RFU OR4N2 (11742367_at) / Fold change /veh OR4N2 (11742367_at) / RFU PRRT2 (11749266_a_at) / Fold change /veh PRRT2 (11749266_a_at) / RFU SNX32 (11753110_a_at) / Fold change /veh SNX32 (11753110_a_at) / RFU CDHR5 (11726645_a_at) / Fold change /veh CDHR5 (11726645_a_at) / RFU RCAN1 (11760418_a_at) / Fold change /veh RCAN1 (11760418_a_at) / RFU FAM167A (11723789_a_at) / Fold change /veh FAM167A (11723789_a_at) / RFU FAM26E (11764081_at) / Fold change /veh FAM26E (11764081_at) / RFU ISYNA1 (11749810_s_at) / Fold change /veh ISYNA1 (11749810_s_at) / RFU ACY1 (11761880_at) / Fold change /veh ACY1 (11761880_at) / RFU 11764098_at / Fold change /veh 11764098_at / RFU SAMD14 (11745864_x_at) / Fold change /veh SAMD14 (11745864_x_at) / RFU NPB (11741838_a_at) / Fold change /veh NPB (11741838_a_at) / RFU TMPRSS6 (11731388_a_at) / Fold change /veh TMPRSS6 (11731388_a_at) / RFU KRTAP10-2 (11738614_at) / Fold change /veh KRTAP10-2 (11738614_at) / RFU ARHGAP8 /// PRR5-ARHGAP8 (11727945_x_at) / Fold change /veh ARHGAP8 /// PRR5-ARHGAP8 (11727945_x_at) / RFU KRTAP5-7 /// NADSYN1 (11734609_at) / Fold change /veh KRTAP5-7 /// NADSYN1 (11734609_at) / RFU RASL12 (11751679_a_at) / Fold change /veh RASL12 (11751679_a_at) / RFU CDKN2B (11736163_a_at) / Fold change /veh CDKN2B (11736163_a_at) / RFU PRF1 (11729649_at) / Fold change /veh PRF1 (11729649_at) / RFU, ZNF638 /// ZNF638-IT1 / Fold change vs veh, ZNF638 /// ZNF638-IT1 / RFU, PANK3 / Fold change vs veh, PANK3 / RFU, SH3YL1 / Fold change vs veh, SH3YL1 / RFU, ZEB2 / Fold change vs veh, ZEB2 / RFU, NRIP1 / Fold change vs veh, NRIP1 / RFU, PTTG1IP / Fold change vs veh, PTTG1IP / RFU, CAPN2 / Fold change vs veh, CAPN2 / RFU, MED14 / Fold change vs veh, MED14 / RFU, SNORA58 / Fold change vs veh, SNORA58 / RFU, C1orf63 / Fold change vs veh, C1orf63 / RFU, LRRFIP1 / Fold change vs veh, LRRFIP1 / RFU, NDUFAF7 / Fold change vs veh, NDUFAF7 / RFU, SLC12A2 / Fold change vs veh, SLC12A2 / RFU, IBTK / Fold change vs veh, IBTK / RFU, ESF1 / Fold change vs veh, ESF1 / Fold change vs veh, TMEM50B / RFU, TAOK1 / Fold change vs veh, TAOK1 / RFU, ACBD3 / Fold change vs veh, ACBD3 / RFU, TMA16 / Fold change vs veh, TMA16 / RFU, RWDD3 / Fold change vs veh, RWDD3 / RFU, BCAT1 / Fold change vs veh, BCAT1 / RFU, EDEM3 / Fold change vs veh, EDEM3 / RFU, TMEM33 / Fold change vs veh, TMEM33 / RFU, WDR75 / Fold change vs veh, WDR75 / RFU, AHCTF1 / Fold change vs veh, AHCTF1 / RFU, TFRC / Fold change vs veh, TFRC / RFU, ZDHHC17 / Fold change vs veh, ZDHHC17 / RFU, NOM1 / Fold change vs veh, NOM1 / RFU, ARL8B / Fold change vs veh, ARL8B / RFU, ZBTB11 / Fold change vs veh, ZBTB11 / RFU, TAMM41 / Fold change vs veh, TAMM41 / RFU, KIAA1704 /// LOC100996395 / Fold change vs veh, KIAA1704 /// LOC100996395 / RFU, ING1 / Fold change vs veh, ING1 / RFU, TRMT61B / Fold change vs veh, TRMT61B / RFU, FUBP3 / Fold change vs veh, FUBP3 / RFU, TP53 / Fold change vs veh, TP53 / RFU, TNKS2 / Fold change vs veh, TNKS2 / RFU, ZFP14 / Fold change vs veh, ZFP14 / RFU, ACTR2 / Fold change vs veh, ACTR2 / RFU, PPP3R1 / Fold change vs veh, PPP3R1 / RFU, PIK3R1 / Fold change vs veh, PIK3R1 / RFU, HNRNPA1 / Fold change vs veh, HNRNPA1 / RFU, RNF170 / Fold change vs veh, RNF170 / RFU, ZNF28 / Fold change vs veh, ZNF28 / RFU, RNGTT / Fold change vs veh, RNGTT / RFU, OGT / Fold change vs veh, OGT / RFU, BRD1 / Fold change vs veh, BRD1 / RFU, MARS / Fold change vs veh, MARS / RFU, ZNF655 / Fold change vs veh, ZNF655 / RFU, FAHD1 / Fold change vs veh, FAHD1 / RFU, BDP1 / Fold change vs veh, BDP1 / RFU, LRRCC1 / Fold change vs veh, LRRCC1 / RFU, ARID1A / Fold change vs veh, ARID1A / RFU, ZNF146 / Fold change vs veh, ZNF146 / RFU, ZNF330 / Fold change vs veh, ZNF330 / RFU, GPN3 / Fold change vs veh, GPN3 / RFU, C9orf123 / Fold change vs veh, C9orf123 / RFU, N4BP2L2 / Fold change vs veh, N4BP2L2 / RFU, ARFIP1 / Fold change vs veh, ARFIP1 / RFU, FAM179B / Fold change vs veh, FAM179B / RFU, BCL10 / Fold change vs veh, BCL10 / RFU, UHRF1BP1L / Fold change vs veh, UHRF1BP1L / RFU, BET1 / Fold change vs veh, BET1 / RFU, CNOT2 / Fold change vs veh, CNOT2 / RFU, ZNF268 / Fold change vs veh, ZNF268 / Fold change vs veh, ZNF507 / RFU, DGCR2 / Fold change vs veh, DGCR2 / RFU, WDSUB1 / Fold change vs veh, WDSUB1 / Fold change vs veh, HSP90B1 /// MIR3652 / RFU, ADSS / Fold change vs veh, ADSS / RFU, GK / Fold change vs veh, GK / RFU, ZNF148 / Fold change vs veh, ZNF148 / RFU, TAF9 / Fold change vs veh, TAF9 / RFU, SLC1A5 / Fold change vs veh, SLC1A5 / RFU, SLMO2 / Fold change vs veh, SLMO2 / RFU, ABCC4 / Fold change vs veh, ABCC4 / RFU, LOC101060439 /// RAP1B / Fold change vs veh, LOC101060439 /// RAP1B / RFU, RFX7 / Fold change vs veh, RFX7 / RFU, GTPBP10 / Fold change vs veh, GTPBP10 / RFU, CNEP1R1 / Fold change vs veh, CNEP1R1 / RFU, BIVM-ERCC5 /// ERCC5 / Fold change vs veh, BIVM-ERCC5 /// ERCC5 / RFU, ILF3 / Fold change vs veh, ILF3 / RFU 11762660_at / Fold change /veh 11762660_at / RFU VCAN (11757783_s_at) / Fold change /veh VCAN (11757783_s_at) / RFU DDX43 (11728927_at) / Fold change /veh DDX43 (11728927_at) / RFU KRT8 (11758188_x_at) / Fold change /veh KRT8 (11758188_x_at) / RFU NKD1 (11759106_at) / Fold change /veh NKD1 (11759106_at) / RFU SRD5A1 (11742802_a_at) / Fold change /veh SRD5A1 (11742802_a_at) / RFU TPSAB1 /// TPSB2 (11721975_s_at) / Fold change /veh TPSAB1 /// TPSB2 (11721975_s_at) / RFU GSTM3 (11746129_a_at) / Fold change /veh GSTM3 (11746129_a_at) / RFU IL23R (11737362_x_at) / Fold change /veh IL23R (11737362_x_at) / RFU TMEM51 (11727254_a_at) / Fold change /veh TMEM51 (11727254_a_at) / RFU PIWIL2 (11732686_x_at) / Fold change /veh PIWIL2 (11732686_x_at) / RFU ORM1 (11744905_x_at) / Fold change /veh ORM1 (11744905_x_at) / RFU CCDC152 (11743942_at) / Fold change /veh CCDC152 (11743942_at) / RFU ECM1 (11717891_a_at) / Fold change /veh ECM1 (11717891_a_at) / RFU IL23R (11748794_a_at) / Fold change /veh IL23R (11748794_a_at) / RFU TNFAIP8L3 (11732012_x_at) / Fold change /veh TNFAIP8L3 (11732012_x_at) / RFU MBOAT4 (11741988_at) / Fold change /veh MBOAT4 (11741988_at) / RFU 11764193_at / Fold change /veh 11764193_at / RFU TMEM53 (11763286_at) / Fold change /veh TMEM53 (11763286_at) / RFU MAGEB2 (11727129_at) / Fold change /veh MAGEB2 (11727129_at) / RFU TMEM200A (11744735_a_at) / Fold change /veh TMEM200A (11744735_a_at) / RFU CCDC152 (11751479_a_at) / Fold change /veh CCDC152 (11751479_a_at) / RFU FAM211A (11726209_a_at) / Fold change /veh FAM211A (11726209_a_at) / RFU RGS16 (11746705_a_at) / Fold change /veh RGS16 (11746705_a_at) / RFU VCAN (11755009_s_at) / Fold change /veh VCAN (11755009_s_at) / RFU RHOB (11743442_s_at) / Fold change /veh RHOB (11743442_s_at) / RFU RGS16 (11720943_a_at) / Fold change /veh RGS16 (11720943_a_at) / RFU RGS16 (11720944_at) / Fold change /veh RGS16 (11720944_at) / RFU, VPS4B / Fold change vs veh, VPS4B / RFU, CREB1 / Fold change vs veh, CREB1 / RFU, DNAJC13 / Fold change vs veh, DNAJC13 / RFU, GNAQ / Fold change vs veh, GNAQ / RFU, CDK5R1 / Fold change vs veh, CDK5R1 / RFU, ZRANB3 / Fold change vs veh, ZRANB3 / RFU, CUL4A / Fold change vs veh, CUL4A / RFU, CCNY / Fold change vs veh, CCNY / RFU, UFL1 / Fold change vs veh, UFL1 / RFU, COG3 / Fold change vs veh, COG3 / RFU, DIAPH2 / Fold change vs veh, DIAPH2 / RFU, SKA2 / Fold change vs veh, SKA2 / RFU, AFF3 / Fold change vs veh, AFF3 / RFU, LMF1 / Fold change vs veh, LMF1 / RFU, IPO11 / Fold change vs veh, IPO11 / RFU, DFFB / Fold change vs veh, DFFB / RFU, FOXP1 / Fold change vs veh, FOXP1 / RFU, CARD8 / Fold change vs veh, CARD8 / RFU, STRN3 / Fold change vs veh, STRN3 / RFU, ADK / Fold change vs veh, ADK / RFU, RASSF2 / Fold change vs veh, RASSF2 / RFU, WIPF1 / Fold change vs veh, WIPF1 / RFU, LARP1B / Fold change vs veh, LARP1B / RFU, RASA1 / Fold change vs veh, RASA1 / RFU, RB1 / Fold change vs veh, RB1 / RFU, PPFIA1 / Fold change vs veh, PPFIA1 / RFU, MAT2A / Fold change vs veh, MAT2A / RFU, CCT5 / Fold change vs veh, CCT5 / RFU, WDR92 / Fold change vs veh, WDR92 / RFU, CUX1 / Fold change vs veh, CUX1 / RFU, TTC7A / Fold change vs veh, TTC7A / RFU, TMEM135 / Fold change vs veh, TMEM135 / RFU, DEPTOR / Fold change vs veh, DEPTOR / RFU, CPM / Fold change vs veh, CPM / RFU, DNAJB6 / Fold change vs veh, DNAJB6 / RFU, CACNA2D3 / Fold change vs veh, CACNA2D3 / RFU, DTX4 / Fold change vs veh, DTX4 / RFU, TFCP2 / Fold change vs veh, TFCP2 / RFU, GMCL1 /// GMCL1P1 / Fold change vs veh, GMCL1 /// GMCL1P1 / RFU, AEBP2 / Fold change vs veh, AEBP2 / RFU, SNHG1 /// SNORD22 /// SNORD25 /// SNORD26 /// SNORD27 /// SNORD28 /// SNORD29 /// SNORD31 / Fold change vs veh, SNHG1 /// SNORD22 /// SNORD25 /// SNORD26 /// SNORD27 /// SNORD28 /// SNORD29 /// SNORD31 / Fold change (Aza/veh), C12orf56 (ProbeSet 11735607_a_at) / Fold change (ACY-1035/veh), C12orf56 (ProbeSet 11735607_a_at) / Fold change (Aza/veh), FGFR1OP (ProbeSet 11751329_s_at) / Fold change (ACY-1035/veh), FGFR1OP (ProbeSet 11751329_s_at) / Fold change (Aza/veh), VPS36 (ProbeSet 11739960_a_at) / Fold change (ACY-1035/veh), VPS36 (ProbeSet 11739960_a_at) / RFU SYPL1 (11715823_x_at) / Fold change /veh SYPL1 (11715823_x_at) / RFU IGFBP7 (11715501_s_at) / Fold change /veh IGFBP7 (11715501_s_at) / RFU REEP3 (11722064_at) / Fold change /veh REEP3 (11722064_at) / RFU IGLL1 (11728026_x_at) / Fold change /veh IGLL1 (11728026_x_at): dose or concentration left out as unconfirmed
Conditions: ProbeSet 11753055_s_at; LIST B

## Nc1ncn([C@@H]2O[C@H](CO)[C@@H](O)[C@H]2O)c(=O)n1 [azacitidine]
  Fold change vs veh, LOC101060439 /// RAP1B: 0.86
